1 compound from ChEMBL document CHEMBL5532761, “Rosavin improves insulin resistance and alleviates hepatic and kidney damage via modulating the cGAS-STING pathway and autophagy signaling in HFD/STZ-induced T2DM animals” (2024) can be followed below.

Activity calls are given as the source filed them. The calls are words filed in the database; no cut-off is given here.

The test system of experiment [1] is Rattus norvegicus. Nature of the experiment: Antidiabetic activity in ip dosed high fat diet-STZ induced diabetic Wistar rat model assessed as reduction of STING mRNA expression in liver pretreated with high fat diet for 4 weeks followed by 8 hrs fasting after STZ administration and measured 4 weeks after compound treatment by RT-qPCR analysis. The following applies: dose 10-30 mg/kg. It counts as functional, organism-based.

The test system of experiment [2] is Rattus norvegicus. Nature of the experiment: Antidiabetic activity in high fat diet-STZ induced diabetic Wistar rat model assessed as urine albumin to creatinine ratio at 30 mg/kg, ip pretreated with high fat diet for 4 weeks followed by 8 hrs fasting after STZ administration and measured 4 weeks after compound treatment (reference value: 87.13 +/- 9.75 mg/g). It counts as functional.

Experiment [3] deals with Rattus norvegicus. Nature of the experiment: Antidiabetic activity in high fat diet-STZ induced diabetic Wistar rat model assessed as mean area percentage of LC3B in kidney at 20 mg/kg, ip pretreated with high fat diet for 4 weeks followed by 8 hrs fasting after STZ administration and measured after 4 weeks of compound treatment by immunohistochemistry based microscopic analysis (reference value: 2.47 +/- 0.356 %). It counts as functional.

Experiment [4] concerns Rattus norvegicus. Description: Antidiabetic activity in high fat diet-STZ induced diabetic Wistar rat model assessed as reduction in adipocyte diameter in adipose tissue at 10 mg/kg, ip pretreated with high fat diet for 4 weeks followed by 8 hrs fasting after STZ administration and measured 4 weeks after compound treatment by hematoxylin and eosin staining based microscopic analysis. It counts as functional, organism-based.

The test system of experiment [5] is Rattus norvegicus. Nature of the experiment: Antidiabetic activity in high fat diet-STZ induced diabetic Wistar rat model assessed as increase in AC074117.2 lncRNA expression in adipose tissue at 10 to 30 mg/kg, ip pretreated with high fat diet for 4 weeks followed by 8 hrs fasting after STZ administration and measured 4 weeks after compound treatment by RT-qPCR analysis. It counts as functional, organism-based. The following applies: dose 10-30 mg/kg.

Experiment [6] deals with Rattus norvegicus. Nature of the experiment: Antidiabetic activity in high fat diet-STZ induced diabetic Wistar rat model assessed as reduction in interstitial inflammatory cell infiltration in kidney at 10 mg/kg, ip pretreated with high fat diet for 4 weeks followed by 8 hrs fasting after STZ administration and measured 4 weeks after compound treatment by hematoxylin and eosin staining based microscopic analysis. It counts as functional, organism-based.

Experiment [7] deals with Rattus norvegicus. Description: Antidiabetic activity in high fat diet-STZ induced diabetic Wistar rat model assessed as intact hepatocytes at 30 mg/kg, ip pretreated with high fat diet for 4 weeks followed by 8 hrs fasting after STZ administration and measured 4 weeks after compound treatment by hematoxylin and eosin staining based microscopic analysis. It counts as functional, organism-based.

Experiment [8] has as its system Rattus norvegicus. Description: Antidiabetic activity in high fat diet-STZ induced diabetic Wistar rat model assessed as reduction in degenerative changes in liver at 30 mg/kg, ip pretreated with high fat diet for 4 weeks followed by 8 hrs fasting after STZ administration and measured 4 weeks after compound treatment by hematoxylin and eosin staining based microscopic analysis. It counts as functional, organism-based.

The subject of experiment [9] is Rattus norvegicus. Nature of the experiment: Antidiabetic activity in high fat diet-STZ induced diabetic Wistar rat model assessed as reduction in tubular dilation in kidney at 30 mg/kg, ip pretreated with high fat diet for 4 weeks followed by 8 hrs fasting after STZ administration and measured 4 weeks after compound treatment by hematoxylin and eosin staining based microscopic analysis. It counts as functional, organism-based.

For experiment [10], the system named is Rattus norvegicus. Nature of the experiment: Antidiabetic activity in high fat diet-STZ induced diabetic Wistar rat model assessed as mean area percentage of TNF alpha in liver at 30 mg/kg, ip pretreated with high fat diet for 4 weeks followed by 8 hrs fasting after STZ administration and measured after 4 weeks of compound treatment by immunohistochemistry based microscopic analysis (reference value: 18.28 +/- 1.31 %). It counts as functional.

In experiment [11] the test system is Rattus norvegicus. Nature of the experiment: Antidiabetic activity in high fat diet-STZ induced diabetic Wistar rat model assessed as reduction in epididymal adipocyte cell size in adipose tissue at 20 to 30 mg/kg, ip pretreated with high fat diet for 4 weeks followed by 8 hrs fasting after STZ administration and measured 4 weeks after compound treatment by hematoxylin and eosin staining based microscopic analysis. It counts as functional, organism-based. The following applies: dose 20-30 mg/kg.

Experiment [12] relates to Rattus norvegicus. Nature of the experiment: Antidiabetic activity in high fat diet-STZ induced diabetic Wistar rat model assessed as mean area percentage of TNF alpha in liver at 20 mg/kg, ip pretreated with high fat diet for 4 weeks followed by 8 hrs fasting after STZ administration and measured after 4 weeks of compound treatment by immunohistochemistry based microscopic analysis (reference value: 18.28 +/- 1.31 %). It counts as functional.

Experiment [13] has as its system Rattus norvegicus. Description: Antidiabetic activity in ip dosed high fat diet-STZ induced diabetic Wistar rat model assessed as reduction of DDX58 mRNA expression in liver pretreated with high fat diet for 4 weeks followed by 8 hrs fasting after STZ administration and measured 4 weeks after compound treatment by RT-qPCR analysis. It counts as functional, organism-based. The conditions noted are these: dose 10-30 mg/kg.

Experiment [14] has as its system Rattus norvegicus. Nature of the experiment: Antidiabetic activity in high fat diet-STZ induced diabetic Wistar rat model assessed as creatinine level at 30 mg/kg, ip pretreated with high fat diet for 4 weeks followed by 8 hrs fasting after STZ administration and measured 4 weeks after compound treatment (reference value: 3.88 +/- 0.502 mg%). It counts as functional.

The test system of experiment [15] is Rattus norvegicus. Nature of the experiment: Antidiabetic activity in ip dosed high fat diet-STZ induced diabetic Wistar rat model assessed as reduction of DDX58 mRNA expression in kidney pretreated with high fat diet for 4 weeks followed by 8 hrs fasting after STZ administration and measured 4 weeks after compound treatment by RT-qPCR analysis. It counts as functional, organism-based. The conditions noted are these: dose 10-30 mg/kg.

The subject of experiment [16] is Rattus norvegicus. Nature of the experiment: Antidiabetic activity in high fat diet-STZ induced diabetic Wistar rat model assessed as glucose level in serum at 10 mg/kg, ip pretreated with high fat diet for 4 weeks followed by 8 hrs fasting after STZ administration and measured 4 weeks after compound treatment (reference value: 527.7 +/- 49.1 mg%). It counts as functional.

Experiment [17] concerns Rattus norvegicus. Description: Antidiabetic activity in high fat diet-STZ induced diabetic Wistar rat model assessed as blood urea nitrogen level at 10 mg/kg, ip pretreated with high fat diet for 4 weeks followed by 8 hrs fasting after STZ administration and measured 4 weeks after compound treatment (reference value: 466.4 +/- 51.16 mg%). It counts as functional.
Experiment [18] relates to Rattus norvegicus. Description: Antidiabetic activity in high fat diet-STZ induced diabetic Wistar rat model assessed as triglyceride level at 10 mg/kg, ip pretreated with high fat diet for 4 weeks followed by 8 hrs fasting after STZ administration and measured 4 weeks after compound treatment (reference value: 17.05 +/- 0.803 mmol/L). It counts as functional.
Experiment [19] deals with Rattus norvegicus. Nature of the experiment: Antidiabetic activity in ip dosed high fat diet-STZ induced diabetic Wistar rat model assessed as reduction of STING mRNA expression in kidney pretreated with high fat diet for 4 weeks followed by 8 hrs fasting after STZ administration and measured 4 weeks after compound treatment by RT-qPCR analysis. It counts as functional, organism-based. The conditions noted are these: dose 10-30 mg/kg.

Experiment [20] has as its system Rattus norvegicus. Nature of the experiment: Antidiabetic activity in high fat diet-STZ induced diabetic Wistar rat model assessed as mean area percentage of TNF alpha in liver at 10 mg/kg, ip pretreated with high fat diet for 4 weeks followed by 8 hrs fasting after STZ administration and measured after 4 weeks of compound treatment by immunohistochemistry based microscopic analysis (reference value: 18.28 +/- 1.31 %). It counts as functional.

Experiment [21] deals with Rattus norvegicus. Description: Antidiabetic activity in high fat diet-STZ induced diabetic Wistar rat model assessed as reduction in abnormal infiltrates in liver at 20 mg/kg, ip pretreated with high fat diet for 4 weeks followed by 8 hrs fasting after STZ administration and measured 4 weeks after compound treatment by hematoxylin and eosin staining based microscopic analysis. It counts as functional, organism-based.

For experiment [22], the system named is Rattus norvegicus. Nature of the experiment: Antidiabetic activity in high fat diet-STZ induced diabetic Wistar rat model assessed as ALT level at 10 mg/kg, ip pretreated with high fat diet for 4 weeks followed by 8 hrs fasting after STZ administration and measured 4 weeks after compound treatment (reference value: 152.1 +/- 23.64 IU/L). It counts as functional.

Experiment [23] relates to Rattus norvegicus. Description: Antidiabetic activity in high fat diet-STZ induced diabetic Wistar rat model assessed as creatinine level at 10 mg/kg, ip pretreated with high fat diet for 4 weeks followed by 8 hrs fasting after STZ administration and measured 4 weeks after compound treatment (reference value: 3.88 +/- 0.502 mg%). It counts as functional.

With `O[C@@H]1[C@@H](O)[C@H](OC/C=C/c2ccccc2)O[C@H](CO[C@@H]2OC[C@H](O)[C@H](O)[C@H]2O)[C@H]1O`, the Activity result in the experiment on Rattus norvegicus [1] is “Dose-Dependent Effect”; in the experiment on Rattus norvegicus [2] it was 20.88 mg/g; in the experiment with Rattus norvegicus [3] it was 11.23%; with Rattus norvegicus [10] it was 3.52%; with Rattus norvegicus [12] it was 8.75%; in the experiment with Rattus norvegicus [13], “Dose-Dependent Effect”. For the same compound, the Activity in the experiment on Rattus norvegicus [14] is 0.769 mg%; with Rattus norvegicus [15], “Dose-Dependent Effect”; with Rattus norvegicus [16] it was 227.7 mg%; with Rattus norvegicus [17], 254.7 mg%; in the experiment with Rattus norvegicus [18], 8.52 mmol/L; with Rattus norvegicus [19], “Dose-Dependent Effect”. Also, the Activity in the experiment with Rattus norvegicus [20] was 11.3%; with Rattus norvegicus [22] it was 79.5 IU/L; in the experiment with Rattus norvegicus [23], 2.12 mg%. In the experiment with Rattus norvegicus [4], the result was inactive. In addition, the result with Rattus norvegicus [5], in the experiment on Rattus norvegicus [6], with Rattus norvegicus [7], in the experiment on Rattus norvegicus [8], in the experiment with Rattus norvegicus [9] and with Rattus norvegicus [11] was Active. The outcome in the experiment on Rattus norvegicus [21] was Active.
